Results reported in EPA's ToxValDB 9.5 (doi:10.2903/j.efsa.2005.285).

Experiments:
Bovidae = conditions: subchronic, oral, diet; for LEL: duration: 12 weeks, no effects
Canidae = conditions: chronic, oral, Beagle, organ weight
Gallus gallus = conditions: reproduction developmental, oral, diet, F
Ovis sp. = conditions: oral, diet
Oncorhynchus mykiss = conditions: chronic/long-term; duration: 240 days; oral; feed; clinical chemistry
Sus scrofa = conditions: subchronic; duration: 60 days; oral; diet; Not specified; no effects

| SMILES | LEL (Bovidae; M) [mg/kg-day] | NOAEL (Bovidae; duration: 43 days, F, clinical signs) [mg/kg-day] | NOAEL (Canidae; duration: 15.6 months, diet, M/F) [mg/kg-day] | NOAEL (Gallus gallus; duration: 2 years, no effects) [mg/kg-day] | LEL (Ovis sp.; subchronic, duration: 12 weeks, no effects) [mg/kg-day] | LEL (Bovidae; F) [mg/kg-day] | NOAEL (Canidae; duration: 2 years, capsule) [mg/kg-day] | NOAEL (Gallus gallus; duration: 13 months, mortality) [mg/kg-day] | LOEL (Oncorhynchus mykiss) [µg/kg-day] | NOAEL (Ovis sp.; chronic, duration: 32 weeks, body weight) [mg/kg-day] | LEL (Sus scrofa) [mg/kg-day] |
| --- | --- | --- | --- | --- | --- | --- | --- | --- | --- | --- | --- |
| ClC1=C(Cl)[C@]2(Cl)[C@H]3[C@H]([C@@H]4C=C[C@H]3C4)[C@@]1(Cl)C2(Cl)Cl [Aldrin] | 0.3 | 1.5 | 0.05 | 0.06 | 0.3 |  |  |  |  |  |  |
| ClC1=C(Cl)[C@]2(Cl)[C@@H]3[C@@H]4C[C@@H]([C@H]5O[C@@H]45)[C@@H]3[C@@]1(Cl)C2(Cl)Cl [Dieldrin] | 0.06 |  |  |  |  | 0.08 | 0.005 | 0.6 | 14 | 1 | 1.2 |
